Experimental data reported in article PMC8154177 (Circulation, 2021).
Read-outs that look alike come from different tables or passages of the source.

Legend:
[1] = test system: mouse cardiomyocytes; experiment: Calcium transients (Fluo-4) in paced single mouse cardiac myocytes, veratridine-induced spontaneous events; assay type: cell-based
Method: Cardiomyocytes were isolated from 3- to 6-month-old male C57Bl6N mice as described above and then loaded with 1 µmol/L Fluo-4 AM for 30 to 60 minutes at room temperature before imaging with an Olympus IX83 inverted microscope. The cells were perfused with a gravity controlled, multi-channel superfusion system at a flow rate of 1.5 mL/min. Fluorescence was recorded at 20 Hz through a UPLSAPO 20X objective and an Andor iXon Ultra 897 camera after excitation at 480 nm for 9.85 ms at 5% intensity of the X-cite 120 LED Boost Excelitas light source. Cardiomyocytes were field-stimulated at 1 Hz at a current value 10% above the threshold current required to elicit contraction using a current stimulator (Warner Instruments, SIU-102) equipped with platinum electrodes submerged in the recording bath. Cardiomyocytes were selected on the basis of their typical rod-shaped morphology, the absence of unpaced calcium events, and their consistent response to field stimulation. […] Regions of interest were selected such that the cardiomyocyte resided within the boundaries of the regions of interest in both its contracted and its relaxed state. The average fluorescence intensity for the regions of interest in every frame was then analyzed. Fifty-second segments of the fluorescence intensity trace in control and treated conditions from the same cardiomyocyte were obtained. Typically, these segments were the last 50 s during the >120 s superfusion of the chosen treatment condition.

[2] = target: T1, human Nav1.5 (WT) (Homo sapiens, UniProt Q14524); conditions: for Effect on peak-INa: over a range of concentrations
[3] = test system: cardiac sodium current (peak, total, late-INa) in TAC cardiomyocytes; experiment: Whole-cell patch-clamp of sodium currents in cardiomyocytes from TAC (heart failure) mice; assay type: cell-based, mouse; conditions: 10 µmol/L
Method: (§1) Male C57BL/6 N mice (7 weeks of age) were obtained from Charles River Canada (St. Foy, Quebec) and housed in a temperature and humidity-controlled animal facility with a 12:12-hour light-dark cycle for a minimum of 1 week before investigation. Animals were maintained on Rodent Chow #5001 and water ad libitum. Eight-week-old mice weighing 20 to 25 g were anesthetized with a cocktail of ketamine (100 mg/kg) and xylazine (20 mg/kg) intraperitoneal and preoperative analgesia (meloxicam, 1–2 mg/kg subcutaneous). Once animals reached a surgical plane, endotracheal intubation was performed using 22-G tubing. The endotracheal tube was then connected to a ventilator (Hugo-Sachs Electronik Mini-Vent, Harvard Apparatus Canada) and ventilated at 200 to 250 µl stroke volume and 150 breaths/min. Animals were then prepared for surgery (Liquid Tears applied to eyes; chest and throat shaved and washed and topical antiseptic utilized, then draped). A vertical skin incision was made from the suprasternal notch to midsternum, and then straight blunt scissors were used to cut the sternum to the third or fourth rib. Mini-Goldstein (FST) spreaders were used to retract the ribs. The thymus was blunt-dissected and the aortic arch visualized. The transverse arch was carefully dissected free of connective tissue, and a 6/0 silk tie was passed around the arch between the innominate and left carotid arteries. A double-blunted 27-G (0.4-mm) needle was then placed alongside the arch and the tie ligated. The blunted needle was then removed to standardize the stenosis. The thymus was gently replaced, and retractors removed. Two sutures were placed in the sternum, and the skin incision was closed using 6/0 Vicryl suture continuous pattern. Sham-operated animals underwent the same procedure without banding. Animals were removed from the ventilator and left to recover in a prewarmed cage with no bedding until the “righting reflex” was achieved, and checked initially every 5 to 10 minutes for the first 60 minutes, then regularly at 20 to 30 minutes intervals for the next 2 to 3 hours. […]

[4] = target: T1, human Nav1.5 (WT); experiment: cell-based
[5] = target: T2, human Nav1.5 ΔKPQ (Homo sapiens, UniProt Q14524, DEL1505-1507); experiment: Whole-cell patch-clamp of recombinant Nav1.5 LQT3 ΔKPQ mutant; assay type: cell-based; conditions: 10 µmol/L
T2 construct: host or cells: HEK293T
Method: (§2) The human Nav1.5 gene (SCN5A) in the pcDNA3.1(+)/C-(K)DYK vector (GenScript, Cat No. OHu18270D, USA) was cotransfected with a GFP vector into HEK293T cells using Lipofectamine 3000 (Invitrogen, Cat No. L3000001, USA). Transfected cells were seated on coverslips and used for functional studies within 48 to 72 hours. […] PCR products were cloned into XL-10 Gold Ultracompetent cells (Agilent, Cat No. 200315, USA), and DNA was isolated and purified by GeneElute Plasmid Miniprep kits (Sigma, Cat No. PLN350, USA). The presence of the desired mutations and the integrity of plasmids were then verified by DNA sequencing (The Applied Genomics Core, University of Alberta). The R1623Q LQT3 mutation in human Nav1.5 was constructed as described previously.[42]
(§3) Pipettes were pulled from borosilicate glass (World Precision Instruments, Sarasota, FL) using a P-87 micropipette puller (Sutter Instruments, Novato, CA), and the tips were fire-polished, yielding resistances of 3 to 4 MΩ. The pipette solution contained (in mmol/L) 130 CsCl, 5 NaCl, 5 TEA (tetra-ethyl ammonium chloride)-Cl, 2.5 HEPES, 1 EGTA, and 2 MgATP. The pH was adjusted to 7.2 with CsOH. The extracellular solution contained (in mmol/L) 140 NaCl, 10 HEPES, 1 CaCl2, 1.4 MgCl2, 5 KCl, and 5 glucose (pH adjusted to 7.4 with NaOH).

[6] = target: T3, human NCX1.1 (Homo sapiens, UniProt P32418); experiment: Whole-cell patch-clamp of reverse-mode NCX1.1 current in HEK293T cells; assay type: cell-based; conditions: 1 µmol/L
T3 construct: expressed in transfected cells; host or cells: HEK293T
From the text: as §3

[7] = target: T4, human Nav1.5 R1623Q (Homo sapiens, UniProt Q14524, R1623Q); experiment: Whole-cell patch-clamp of recombinant Nav1.5 LQT3 R1623Q mutant; assay type: cell-based; conditions: 10 µmol/L
T4 construct: expressed in transfected cells; host or cells: HEK293T
Method: as §2, §3

[8] = test system: NLRP3 inflammasome; experiment: Immunoblot of NLRP3 and TXNIP in isolated mouse hearts after ischemia-reperfusion (Langendorff)
[9] = test system: isolated mouse hearts; experiment: Postischemic functional recovery (LVDP) of isolated Langendorff-perfused mouse hearts
[10] = test system: cardiac sodium current (peak, total, late-INa) in sham cardiomyocytes; experiment: Whole-cell patch-clamp of sodium currents in cardiomyocytes from sham-operated mice; assay type: cell-based, mouse; conditions: 10 µmol/L
Method: as §1

[11] = 1 µmol/L, 30 min ischemia, 40 min reperfusion

Molecule: COc1ccc(C(=O)O[C@H]2CC[C@@]3(C)[C@@H]4CC[C@H]5[C@]6(O)C[C@H](O)[C@@]7(O)[C@@H](CN8C[C@@H](C)CC[C@H]8[C@@]7(C)O)[C@]6(O)C[C@@]53O[C@]24O)cc1OC [veratridine]
- Induction of late-INa activity and spontaneous calcium transients ([1]; 20 nmol/L, pilot experiments): induces late-INa activity

Molecule: COc1ccccc1OCC(O)CN1CCN(CC(=O)Nc2c(C)cccc2C)CC1 (centres unmarked) [ranolazine]
- Effect on incidence of veratridine-induced spontaneous transients ([1]; 10 µmol/L, 20 nmol/L veratridine): significantly reduced

Molecule: canagliflozin
- Effect on peak-INa [2]: little inhibitory effect
- IC50 ([2]; read-out: IC50 for inhibition of H2O2-induced late-INa, recombinant human Nav1.5 in HEK293T cells, late-INa induced by 30 µmol/L H2O2): 1260 nM

Molecule: OC[C@H]1O[C@@H](c2ccc(Cl)c(Cc3ccc(O[C@H]4CCOC4)cc3)c2)[C@H](O)[C@@H](O)[C@@H]1O [empagliflozin]
- Effect on late-INa [3]: significantly reduced
- Effect on peak current [3]: did not affect
- Effect on total current (area under the curve) [3]: significantly reduced
- IC50 [4]: 790 nM
- Effect on peak current of ΔKPQ ([5]; data not shown): did not inhibit
- Steady-state late-INa after drug ([5]; ≈2% before drug): ≈ 1 % of peak current amplitude
- Inhibition of reverse-mode NCX1.1 [6]: no significant inhibition
- Effect on late component of R1623Q current [7]: significantly reduced
- Effect on peak component of R1623Q current [7]: significantly reduced
- Activation V50 after drug ([7]; R1623Q currents): –43.3 mV
- Inactivation V50 after drug ([7]; R1623Q currents): –97.5 mV
- Activation of TXNIP after ischemia-reperfusion [8, 11]: complete prevention
- Activation of the NLRP3 inflammasome after ischemia-reperfusion [8, 11]: complete prevention
- Reduction of the occurrence of veratridine-induced spontaneous transients ([1]; 1 µmol/L, 20 nmol/L veratridine, 1 Hz field stimulation): 46%
- Effect on calcium transients in vehicle control-treated cardiomyocytes ([1]; no veratridine, data not shown): no observable effect
- Reperfusion functional recovery (LVDP) [9, 11]: improved
- Frequency dependence of peak- and late-INa inhibition ([2]; 1 µmol/L, stimulation frequencies 0.2–3 Hz): no significant differences
- Effect on H2O2-induced late-INa in WT channels ([2]; 10 µmol/L): significantly inhibited
- Effect on H2O2-induced late-INa ([2]; 1 and 10 µmol/L): significantly inhibited
- Half-activation voltage (V50) after drug ([2]; WT currents, 10 µmol/L): –42.4 mV
- Effect on peak-INa [2]: little effect
- Effect on late-INa [10]: did not significantly alter
- Effect on peak current [10]: did not significantly alter
- Effect on total sodium current [10]: did not significantly alter

Molecule: CCN(CC)CC(=O)Nc1c(C)cccc1C [lidocaine]
- Effect on incidence of veratridine-induced spontaneous transients [1]: significantly reduced

Molecule: NC1=N[C@H](O)[C@H]2[C@H]3O[C@]4(O)O[C@@H]([C@@H](O)[C@@]2(N1)[C@@H]4O)[C@]3(O)CO [tetrodotoxin]
- Activation of TXNIP after ischemia-reperfusion [8]: complete prevention
- Activation of the NLRP3 inflammasome after ischemia-reperfusion [8]: complete prevention
- Reperfusion functional recovery (LVDP) [9]: improved
- Sensitivity of H2O2-induced persistent inward current (late-INa) [2]: sensitive

Molecule: CCOc1ccc(Cc2cc([C@@H]3O[C@H](CO)[C@@H](O)[C@H](O)[C@H]3O)ccc2Cl)cc1 [dapagliflozin]
- IC50 [4]: 580 nM
- Effect on peak-INa [2]: little inhibitory effect
